Test results published in PubChem BioAssay (NCI).
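1) Cells in 96-well plates. 2) Compound, 48 h, 5 concentrations. 3) Linear interpolation between surrounding doses. 4) Unreached endpoint = highest concentration. GI50: concentration for 50% inhibition of growth. At the TGI there is no net growth.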

Columns and labels:
Assay in all cases: NCI anticancer screen, dose series, 48 h
A549 NSCLC = test system: A549 NSCLC
DU-145 prostate = test system: DU-145 prostate
HCT-15 colon = test system: HCT-15 colon
MCF7 breast = test system: MCF7 breast
NCI-H226 lung = test system: NCI-H226 lung
OVCAR-3 ovarian = test system: OVCAR-3 ovarian
SK-MEL-2 melanoma = test system: SK-MEL-2 melanoma
SW-620 colon = test system: SW-620 colon
HL-60(TB) leukemia = test system: HL-60(TB) leukemia
LOX IMVI melanoma = test system: LOX IMVI melanoma

CN1CCC(CNc2cc(C3(C(=O)Nc4cc(C(=O)Nc5ccc(Cl)c(C(F)(F)F)c5)ccc4F)CC3)ncn2)CC1
GI50 (A549 NSCLC): 2.29 µM | TGI (A549 NSCLC): 5.54 µM | GI50 (DU-145 prostate): 3.99 µM | TGI (DU-145 prostate): 15.8 µM | GI50 (HCT-15 colon): 1.6 µM | TGI (HCT-15 colon): 4.19 µM | GI50 (MCF7 breast): 1.97 µM | TGI (MCF7 breast): 5.24 µM | GI50 (NCI-H226 lung): 13.6 µM | TGI (NCI-H226 lung): 36.1 µM | GI50 (OVCAR-3 ovarian): 2.57 µM | TGI (OVCAR-3 ovarian): 8.44 µM | GI50 (SK-MEL-2 melanoma): 1.9 µM | TGI (SK-MEL-2 melanoma): 4.02 µM | GI50 (SW-620 colon): 2.54 µM | TGI (SW-620 colon): 5.32 µM

CCNCCNC(=O)c1ccc(I)cc1
TGI (A549 NSCLC): > 100 µM | TGI (HCT-15 colon): > 100 µM | TGI (HL-60(TB) leukemia): > 100 µM | TGI (LOX IMVI melanoma): > 100 µM | TGI (MCF7 breast): > 100 µM | TGI (NCI-H226 lung): > 100 µM | TGI (OVCAR-3 ovarian): > 100 µM | TGI (SW-620 colon): > 100 µM

C1=C(c2ccccc2)SC(N2CCCCC2)S1 (stereo not drawn)
TGI (HCT-15 colon): > 100 µM | TGI (HL-60(TB) leukemia): > 100 µM | TGI (LOX IMVI melanoma): > 100 µM | TGI (NCI-H226 lung): > 100 µM | TGI (OVCAR-3 ovarian): > 100 µM | TGI (SK-MEL-2 melanoma): > 100 µM | TGI (SW-620 colon): > 100 µM

N=C1C(=N)c2ccccc2-c2ccccc21.[Cl-].[Ru+2].c1ccc(-c2ccccn2)nc1.c1ccc(-c2ccccn2)nc1
TGI (A549 NSCLC): > 100 µM | TGI (HCT-15 colon): > 100 µM | TGI (HL-60(TB) leukemia): > 100 µM | TGI (LOX IMVI melanoma): > 100 µM | TGI (OVCAR-3 ovarian): > 100 µM | TGI (SK-MEL-2 melanoma): > 100 µM | TGI (SW-620 colon): > 100 µM

O=c1[nH]/c(=C/c2ccc(OCc3ccccc3)cn2)c(=O)[nH]/c1=C/c1ccccc1
TGI (A549 NSCLC): > 100 µM | TGI (HCT-15 colon): > 46.4 µM | TGI (LOX IMVI melanoma): > 100 µM | TGI (MCF7 breast): > 100 µM | TGI (OVCAR-3 ovarian): > 78.6 µM | TGI (SK-MEL-2 melanoma): > 100 µM | TGI (SW-620 colon): > 100 µM

COC1=NCc2ccccc2-c2ccccc21
TGI (A549 NSCLC): > 100 µM | TGI (HCT-15 colon): > 100 µM | TGI (HL-60(TB) leukemia): > 100 µM | TGI (LOX IMVI melanoma): > 100 µM | TGI (NCI-H226 lung): > 100 µM | TGI (OVCAR-3 ovarian): > 100 µM | TGI (SK-MEL-2 melanoma): > 100 µM

CCCCCOc1ccc(C=Nc2ccc(CCc3ccc(N=Cc4ccc(OCCCCC)cc4)cc3)cc2)cc1
TGI (A549 NSCLC): > 100 µM | TGI (HCT-15 colon): > 100 µM | TGI (HL-60(TB) leukemia): > 100 µM | TGI (LOX IMVI melanoma): > 100 µM | TGI (MCF7 breast): > 100 µM | TGI (NCI-H226 lung): > 100 µM | TGI (OVCAR-3 ovarian): > 100 µM | TGI (SK-MEL-2 melanoma): > 100 µM | TGI (SW-620 colon): > 100 µM

Cc1ccc2c(c1)-c1nc(N)c(C#N)c(-c3ccc(Cl)cc3)c1CCS2(=O)=O
TGI (A549 NSCLC): > 100 µM | TGI (DU-145 prostate): > 100 µM | TGI (HCT-15 colon): > 100 µM | TGI (HL-60(TB) leukemia): 47 µM | TGI (LOX IMVI melanoma): > 100 µM | TGI (NCI-H226 lung): > 100 µM | TGI (SK-MEL-2 melanoma): > 100 µM | TGI (SW-620 colon): > 100 µM

C#CCNC(CSSCC(N)C(=O)O)C(=O)O (stereo not drawn)
TGI (A549 NSCLC): > 100 µM | TGI (DU-145 prostate): > 100 µM | TGI (HCT-15 colon): > 100 µM | TGI (MCF7 breast): > 100 µM | TGI (NCI-H226 lung): > 100 µM | TGI (OVCAR-3 ovarian): > 100 µM | TGI (SK-MEL-2 melanoma): > 100 µM | TGI (SW-620 colon): > 100 µM

C=CCC1(C#N)C(=S)NC2=C(C(=O)CC(C)(C)C2)C1c1ccccc1 (stereo not drawn)
TGI (A549 NSCLC): > 100 µM | TGI (DU-145 prostate): 40.5 µM | TGI (HCT-15 colon): > 100 µM | TGI (HL-60(TB) leukemia): > 100 µM | TGI (LOX IMVI melanoma): > 100 µM | TGI (NCI-H226 lung): > 100 µM | TGI (SK-MEL-2 melanoma): > 100 µM | TGI (SW-620 colon): > 100 µM

CCOC(=O)C(C#N)(Cc1c[nH]c2ccccc12)NC(C)=O (stereo not drawn)
TGI (HCT-15 colon): > 100 µM | TGI (HL-60(TB) leukemia): > 100 µM | TGI (LOX IMVI melanoma): > 100 µM | TGI (NCI-H226 lung): > 100 µM | TGI (OVCAR-3 ovarian): > 100 µM | TGI (SK-MEL-2 melanoma): > 100 µM | TGI (SW-620 colon): > 100 µM

O=C(O)CC(Cc1ccccc1Cl)C(=O)O (stereo not drawn)
TGI (A549 NSCLC): > 100 µM | TGI (DU-145 prostate): > 100 µM | TGI (HCT-15 colon): > 100 µM | TGI (LOX IMVI melanoma): > 100 µM | TGI (MCF7 breast): > 100 µM | TGI (NCI-H226 lung): > 100 µM | TGI (OVCAR-3 ovarian): > 100 µM | TGI (SK-MEL-2 melanoma): > 100 µM | TGI (SW-620 colon): > 100 µM

Cc1cc([NH-])c([NH-])cc1C.[Cl][Pt+2][Cl]
GI50 (A549 NSCLC): 49 µM | TGI (A549 NSCLC): > 100 µM | GI50 (HCT-15 colon): 10.9 µM | TGI (HCT-15 colon): 32.3 µM | GI50 (HL-60(TB) leukemia): 17 µM | TGI (HL-60(TB) leukemia): 75.4 µM | GI50 (LOX IMVI melanoma): 7.9 µM | TGI (LOX IMVI melanoma): 17.6 µM | GI50 (MCF7 breast): 7.37 µM | TGI (MCF7 breast): 25.2 µM | GI50 (NCI-H226 lung): 13.5 µM | TGI (NCI-H226 lung): 64 µM | GI50 (OVCAR-3 ovarian): 17.9 µM | TGI (OVCAR-3 ovarian): 33.6 µM | GI50 (SW-620 colon): 5.06 µM | TGI (SW-620 colon): 27 µM

C[C@@]1(O)C2CC3CC1(c1ccccc1)CC(/C3=N/O)/C2=N\O (stereo partly drawn)
TGI (A549 NSCLC): > 100 µM | TGI (DU-145 prostate): > 100 µM | TGI (HCT-15 colon): > 100 µM | TGI (HL-60(TB) leukemia): > 100 µM | TGI (LOX IMVI melanoma): > 100 µM | TGI (NCI-H226 lung): > 100 µM | TGI (OVCAR-3 ovarian): > 100 µM | TGI (SK-MEL-2 melanoma): > 100 µM | TGI (SW-620 colon): > 100 µM

C=CCn1c(=O)c(C)cn(COCCO)c1=O
TGI (A549 NSCLC): > 100 µM | TGI (DU-145 prostate): > 100 µM | TGI (LOX IMVI melanoma): > 100 µM | TGI (MCF7 breast): > 100 µM | TGI (NCI-H226 lung): > 100 µM | TGI (OVCAR-3 ovarian): > 100 µM | TGI (SK-MEL-2 melanoma): > 100 µM | TGI (SW-620 colon): > 100 µM

CCn1nc(C)c2c1C(=O)NCC(=O)N2
TGI (A549 NSCLC): > 100 µM | TGI (DU-145 prostate): > 100 µM | TGI (HCT-15 colon): > 100 µM | TGI (OVCAR-3 ovarian): > 100 µM | TGI (SW-620 colon): > 100 µM

COc1ccc([C@H]2[C@H]3COC(=O)[C@H]3C(C#N)=C3Sc4ccccc4N32)cc1
TGI (A549 NSCLC): > 100 µM | TGI (DU-145 prostate): 69.7 µM | TGI (HCT-15 colon): > 87.4 µM | TGI (LOX IMVI melanoma): > 62.9 µM | TGI (MCF7 breast): > 100 µM | TGI (NCI-H226 lung): > 100 µM | TGI (OVCAR-3 ovarian): 68 µM | TGI (SK-MEL-2 melanoma): 56.7 µM | TGI (SW-620 colon): > 100 µM
